The term IC50 denotes the point on the concentration scale where inhibition reaches its midpoint. Read a high IC50 as a need for much substance.

Assay [1] deals with MIA PaCa-2. The assay can be described thus: Antiproliferative activity against human MIAPaCa2 cells after 48 hrs by propidium iodide staining-based fluorometric analysis. The class given is functional, cell-based. The note with it: MIA PaCa-2, 48 h.
Assay [2] deals with HT-29. The assay can be described thus: Antiproliferative activity against human HT-29 cells after 48 hrs by propidium iodide staining-based fluorometric analysis. The class given is functional, cell-based. The note with it: HT-29, 48 h.
For assay [3], the system named is NCI-H460. The assay can be described thus: Antiproliferative activity against human H460 cells after 48 hrs by propidium iodide staining-based fluorometric analysis. The note with it: NCI-H460, 48 h. It counts as functional, cell-based.
The subject of assay [4] is PANC-1. The assay can be described thus: Antiproliferative activity against human PANC1 cells after 48 hrs by propidium iodide staining-based fluorometric analysis. The class given is functional, cell-based. The note with it: PANC-1, 48 h.
In assay [5] the test system is NCI-H226. The assay can be described thus: Growth inhibition of human NCI-H226 cells at 10 uM incubated for 48 hrs by sulforhodamine B assay relative to control. The class given is functional. The note with it: NCI-H226, 48 h, read-out: GI. On the technique in general: In SRB staining, fixed cells bind dye roughly in proportion to their protein.
Assay [6] has as its system UO-31. The assay can be described thus: Growth inhibition of human UO31 cells at 10 uM incubated for 48 hrs by sulforhodamine B assay relative to control. It counts as functional. As to conditions: UO-31, 48 h, read-out: GI.
The subject of assay [7] is A549. The assay can be described thus: Growth inhibition of human A549/ATCC cells at 10 uM incubated for 48 hrs by sulforhodamine B assay relative to control. The class given is functional. The note with it: A549, 48 h, read-out: GI.
The subject of assay [8] is HL-60(TB). The assay can be described thus: Growth inhibition of human HL-60(TB) cells at 10 uM incubated for 48 hrs by sulforhodamine B assay relative to control. As to conditions: HL-60, 48 h, read-out: GI. The class given is functional.
Assay [9] relates to SNB-75. The assay can be described thus: Growth inhibition of human SNB75 cells at 10 uM incubated for 48 hrs by sulforhodamine B assay relative to control. It counts as functional. As to conditions: SNB-75, 48 h, read-out: GI.
In assay [10] the test system is PC-3. The assay can be described thus: Growth inhibition of human PC3 cells at 10 uM incubated for 48 hrs by sulforhodamine B assay relative to control. As to conditions: PC-3, 48 h, read-out: GI. It counts as functional.
The subject of assay [11] is SR. The assay can be described thus: Growth inhibition of human SR cells at 10 uM incubated for 48 hrs by sulforhodamine B assay relative to control. The class given is functional. The note with it: read-out: GI.
The test system of assay [12] is Hs-578T. The assay can be described thus: Growth inhibition of human Hs 578T cells at 10 uM incubated for 48 hrs by sulforhodamine B assay relative to control. The class given is functional. The note with it: read-out: GI.
Assay [13] deals with HOP-92. The assay can be described thus: Growth inhibition of human HOP92 cells at 10 uM incubated for 48 hrs by sulforhodamine B assay relative to control. It counts as functional. As to conditions: HOP-92, 48 h, read-out: GI.
In assay [14] the test system is NCI-H23. The assay can be described thus: Growth inhibition of human NCI-H23 cells at 10 uM incubated for 48 hrs by sulforhodamine B assay relative to control. The class given is functional. As to conditions: NCI-H23, 48 h, read-out: GI.
Assay [15] deals with CCRF-CEM. The assay can be described thus: Growth inhibition of human CCRF-CEM cells at 10 uM incubated for 48 hrs by sulforhodamine B assay relative to control. The class given is functional. As to conditions: read-out: GI.
For assay [16], the system named is SK-MEL-2. The assay can be described thus: Growth inhibition of human SK-MEL-2 cells at 10 uM incubated for 48 hrs by sulforhodamine B assay relative to control. It counts as functional. The note with it: SK-MEL-2, 48 h, read-out: GI.
For assay [17], the system named is SK-OV-3. The assay can be described thus: Growth inhibition of human SKOV3 cells at 10 uM incubated for 48 hrs by sulforhodamine B assay relative to control. The note with it: SK-OV-3, 48 h, read-out: GI. It counts as functional.
Assay [18] relates to UACC-257. The assay can be described thus: Growth inhibition of human UACC257 cells at 10 uM incubated for 48 hrs by sulforhodamine B assay relative to control. The class given is functional. The note with it: UACC-257, 48 h, read-out: GI.
The test system of assay [19] is SNB-19. The assay can be described thus: Growth inhibition of human SNB19 cells at 10 uM incubated for 48 hrs by sulforhodamine B assay relative to control. It counts as functional. As to conditions: SNB-19, 48 h, read-out: GI.
In assay [20] the test system is HOP-62. The assay can be described thus: Growth inhibition of human HOP62 cells at 10 uM incubated for 48 hrs by sulforhodamine B assay relative to control. It counts as functional. As to conditions: HOP-62, 48 h, read-out: GI.
Assay [21] concerns T47D. The assay can be described thus: Growth inhibition of human T47D cells at 10 uM incubated for 48 hrs by sulforhodamine B assay relative to control. The class given is functional. The note with it: read-out: GI.
The subject of assay [22] is U-251. The assay can be described thus: Growth inhibition of human U251 cells at 10 uM incubated for 48 hrs by sulforhodamine B assay relative to control. It counts as functional. The note with it: U-251, 48 h, read-out: GI.
For assay [23], the system named is NCI-H522. The assay can be described thus: Growth inhibition of human NCI-H522 cells at 10 uM incubated for 48 hrs by sulforhodamine B assay relative to control. The class given is functional. As to conditions: NCI-H522, 48 h, read-out: GI.
Assay [24] concerns OVCAR-8. The assay can be described thus: Growth inhibition of human OVCAR8 cells at 10 uM incubated for 48 hrs by sulforhodamine B assay relative to control. It counts as functional. As to conditions: OVCAR-8, 48 h, read-out: GI.
For assay [25], the system named is MOLT-4. The assay can be described thus: Growth inhibition of human MOLT4 cells at 10 uM incubated for 48 hrs by sulforhodamine B assay relative to control. The class given is functional. As to conditions: MOLT-4, 48 h, read-out: GI.
The test system of assay [26] is HT-29. The assay can be described thus: Growth inhibition of human HT-29 cells at 10 uM incubated for 48 hrs by sulforhodamine B assay relative to control. The class given is functional. The note with it: HT-29, 48 h, read-out: GI.
The test system of assay [27] is A498. The assay can be described thus: Growth inhibition of human A498 cells at 10 uM incubated for 48 hrs by sulforhodamine B assay relative to control. The class given is functional. The note with it: A498, 48 h, read-out: GI.
Assay [28] has as its system TK-10. The assay can be described thus: Growth inhibition of human TK10 cells at 10 uM incubated for 48 hrs by sulforhodamine B assay relative to control. The note with it: TK-10, 48 h, read-out: GI. The class given is functional.
For assay [29], the system named is RPMI-8226. The assay can be described thus: Growth inhibition of human RPMI8226 cells at 10 uM incubated for 48 hrs by sulforhodamine B assay relative to control. It counts as functional. As to conditions: RPMI-8226, 48 h, read-out: GI.
In assay [30] the test system is UACC-62. The assay can be described thus: Growth inhibition of human UACC62 cells at 10 uM incubated for 48 hrs by sulforhodamine B assay relative to control. The class given is functional. The note with it: UACC-62, 48 h, read-out: GI.
The test system of assay [31] is HCT-116. The assay can be described thus: Growth inhibition of human HCT116 cells at 10 uM incubated for 48 hrs by sulforhodamine B assay relative to control. The note with it: HCT-116, 48 h, read-out: GI. The class given is functional.
The subject of assay [32] is NCI-H322M. The assay can be described thus: Growth inhibition of human NCI-H322M cells at 10 uM incubated for 48 hrs by sulforhodamine B assay relative to control. The note with it: read-out: GI. The class given is functional.
Assay [33] relates to MCF7. The assay can be described thus: Growth inhibition of human MCF7 cells at 10 uM incubated for 48 hrs by sulforhodamine B assay relative to control. It counts as functional. The note with it: MCF7, 48 h, read-out: GI.

Structures are written as SMILES.

In the case of `CC(=O)c1ccc(NC(=O)Cn2nc(-c3ccccc3)nc2N)cc1`, the IC50 is 8.5 µM in [1], 8.4 µM in assay [2], 9.8 µM in [3] and 9.5 µM in assay [4].

On to `C/C(=N/O)c1ccc(NC(=O)Cn2nc(-c3ccccc3)nc2N)cc1`, for which the inhibition of growth at 10 µM was 3.91% in assay [5]; 15.4% in assay [6]; 32% in assay [7]; 7.41% in assay [8]; 22.5% in [9]; 15.8% in assay [10]. Also, the inhibition of growth at 10 µM in assay [11] amounted to 5.58%; in assay [12], 7.41%; in assay [13], 5.82%; in [14] it was 3.98%; in assay [15], 6.77%; in assay [16], 5.32%. The inhibition of growth at 10 µM in assay [17] came out at 15.2%; in assay [18] it was 34%; in [19], 3.56%; in [20], 17.7%; in assay [21] it was 23%; in assay [22], 8.76%. Also, the inhibition of growth at 10 µM in [23] stood at 30%; in assay [24] it was 15.3%; in assay [25], 11.5%; in [26] it was 13.9%; in assay [27], 19.6%. In addition, the 50% inhibitory concentration (IC50) came out at 5.7 µM in assay [1], 4.7 µM in assay [2], 4.4 µM in [3] and 8.7 µM in [4].

For `CC(=O)c1ccc(NC(=O)Cn2nc(C(F)(F)F)nc2N)cc1`, the inhibition of growth at 10 µM turned out to be 8.52% in assay [5]; 13.7% in assay [6]; 20% in assay [7]; 15.4% in assay [8]; 12.5% in assay [9]; 10.6% in assay [10]. The inhibition of growth at 10 µM was 7.42% in [12]; 6.78% in assay [15]; 7.02% in assay [17]; 14.6% in [18]; 4.37% in assay [19]; 9.94% in [20]. Further, the inhibition of growth at 10 µM in [21] turned out to be 10.8%; in assay [23], 21%; in [24] it was 13.3%; in assay [28] it was 5.17%; in [25], 7.46%; in [26], 16%. Moreover, the concentration for half-maximal inhibition (IC50) in assay [1] stood at 4.7 µM; in assay [2], 3.8 µM; in assay [3], 3.7 µM; in assay [4] it was 4.5 µM.

Regarding `C/C(=N/O)c1ccc(NC(=O)Cn2nc(C(F)(F)F)nc2N)cc1`, the inhibition of growth at 10 µM in [5] is 12.9%; in assay [6] it was 15.1%; in assay [7], 29%; in assay [8], 26%; in assay [9] it was 14.8%; in assay [10], 20.3%. Moreover, the inhibition of growth at 10 µM turned out to be 15.9% in assay [11]; 4.65% in assay [29]; 5.39% in [30]; 4.46% in assay [14]; 10.5% in assay [15]; 13.1% in [16]. For the same compound, the inhibition of growth at 10 µM in assay [17] stood at 3.53%; in assay [18], 25.6%; in [20], 9.21%; in assay [31], 8.65%; in assay [22], 11.3%; in [23] it was 31%. Besides, the inhibition of growth at 10 µM was determined as 20.5% in [24]; 14.3% in [28]; 23.3% in assay [25]; 11.9% in assay [26]; 4.32% in assay [32]. Moreover, the IC50 is 4.9 µM in assay [1], 5.4 µM in [2], 5.2 µM in assay [3] and 3.5 µM in [4].

`CC(=O)c1ccc(NC(=O)Cn2nc(-c3ccc(Cl)cc3)nc2N)cc1`: the inhibition of growth at 10 µM came out at 20.6% in assay [6]; 22% in [7]; 7.98% in [8]; 6.47% in assay [9]; 5.48% in [33]; 20.3% in assay [10]. In addition, the inhibition of growth at 10 µM is 7.32% in assay [11]; 6.29% in assay [12]; 3.17% in [29]; 7.76% in assay [13]; 6.29% in assay [30]; 19.9% in assay [15]. Also, the inhibition of growth at 10 µM in assay [16] stood at 4.03%; in [17] it was 22%; in assay [18], 19.8%; in [19], 8.53%; in assay [20], 15.1%; in [21], 21.6%. Further, the inhibition of growth at 10 µM in assay [31] amounted to 4.68%; in assay [22] it was 5.94%; in assay [23], 28%; in assay [24], 15.4%; in assay [25], 16.5%; in assay [26], 10.4%. Also, in assay [32], the inhibition of growth at 10 µM was found to be 5.69%. The IC50 in assay [1] was 8.1 µM; in [2], 6.9 µM; in assay [3] it was 6.8 µM; in [4], 7.4 µM.
